# Values of other authors, collected in article PMC10386743, “Application of Ligand- and Structure-Based Prediction Models for the Design of Alkylhydrazide-Based HDAC3 Inhibitors as Novel Anti-Cancer Compounds” (Pharmaceuticals, 2023).
# Test system: HDAC3
# Conditions: 1 µM
row,Compound,HDAC3 inhibition @1 µM [%@1 µM]
1,CCCCCCNNC(=O)c1ccc(C)c(NCc2ccccc2)c1 [Compound 71],9
2,CCCNNC(=O)c1cnc(NCCc2ccccc2)nc1 [Compound 74],41

# Same assay, conditions: 10uM
row,Compound,HDAC3 inhibition @10uM [%]
1,CCCCCCNNC(=O)c1ccc(C)c(NCc2ccccc2)c1 [Compound 71],42
2,CCCNNC(=O)c1cnc(NCCc2ccccc2)nc1 [Compound 74],87

# Same assay, conditions: experimentally determined
row,Compound,activity on HDAC3 (in words)
1,CCCCCCNNC(=O)c1ccc(CNC(C)=O)cc1 [Compound 69],did not show significant activity
2,CCCCCCNNC(=O)c1ccc(C)c(NCc2ccccc2)c1 [Compound 71],did not show significant activity
3,CCCNNC(=O)c1cnc(NCCc2ccccc2)nc1 [Compound 74],did not show significant inhibitory activity
4,CCCCCCNNC(=O)c1cccc(NCc2ccccc2)c1 [Compound 70],did not show significant activity

# Same assay, conditions: newly designed compounds
row,Compound,pIC50 HDAC3 (HDAC3 experimental pIC50)
1,CCCCCCNNC(=O)c1ccc(CNC(C)=O)cc1 [Compound 69],<5.00
2,CCCCCCNNC(=O)c1cnc(N2CCN(CCc3c[nH]c4ccccc34)CC2)nc1 [Compound 88],6.00
3,CCCNNC(=O)c1cnc(NCc2cccc3ccccc23)nc1 [Compound 75],7.09
4,CCCCCCNNC(=O)c1cnc(NCc2cccc3ccccc23)nc1 [Compound 81],<5.00
5,CCCNNC(=O)c1cnc(NCc2cc(Cl)ccc2Cl)nc1 [Compound 78],7.24
6,CCCNNC(=O)c1ccc(-c2ccc(CNC(C)=O)cc2)cc1 [Compound 64],7.04
7,CCCCCCNNC(=O)c1cccc(NCc2ccccc2)c1 [Compound 70],<5.00
8,CCCNNC(=O)c1cnc(N2CCN(Cc3c[nH]c4ccccc34)CC2)nc1 [Compound 85],7.52
9,CCCNNC(=O)c1cnc(NCc2ccc(CNC(C)=O)cc2)nc1 [Compound 80],6.96
10,CCCCCCNNC(=O)c1cnc(N2CCN(CCc3cn(C)c4ccccc34)CC2)nc1 [Compound 89],5.85
11,CCCCCCNNC(=O)c1cnc(NCc2ccc(CNC(C)=O)cc2)nc1 [Compound 84],<5.00
12,CCCCCCNNC(=O)c1cnc(NCc2ccccc2)nc1 [Compound 83],5.52
13,CCCCCCNNC(=O)c1ccc(-c2ccc(CNC(C)=O)cc2)cc1 [Compound 67],<5.00
14,CCCNNC(=O)c1cnc(NCc2ccccc2)nc1 [Compound 72],7.37
15,CCCCCCNNC(=O)c1cnc(N2CCN(Cc3cn(C)c4ccccc34)CC2)nc1 [Compound 87],6.52

# Test system: recombinant human HDAC3
# Conditions: recombinant human HDAC3, Boc-Lys(acetyl)-AMC; supplement Ref. [46]
row,Compound,pIC50 HDAC3 (HDAC3 experimental pIC50)
1,CCCNNC(=O)c1ccc(CNC(=O)c2cc3cc(F)ccc3o2)cc1 [Compound 7],9.08
2,CCCNNC(=O)c1ccc(CNC(=O)c2cc3cc(Cl)ccc3o2)cc1 [Compound 5],9.21
3,C#CCOc1ccc2oc(C(=O)NCc3ccc(C(=O)NNCCC)cc3)cc2c1 [Compound 8],9.07
4,CCCNNC(=O)c1ccc(CNC(=O)c2ccc3ccccc3n2)cc1 [Compound 9],9.05
5,CCCNNC(=O)c1ccc(CNC(=O)c2cc3cc(F)ccc3[nH]2)cc1 [Compound 17],8.79
6,CCCNNC(=O)c1ccc(CNC(=O)c2cc3ccccc3o2)cc1 [Compound 3],9.42
7,CCCNNC(=O)c1ccc(CNC(=O)c2nc3ccccc3s2)cc1 [Compound 12],8.88
8,CCCNNC(=O)c1ccc(CNC(=O)c2cc3cc(Cl)ccc3[nH]2)cc1 [Compound 6],9.18
9,CCCNNC(=O)c1ccc(CNC(=O)c2cc3cc(OC)ccc3o2)cc1 [Compound 1],9.55
10,CCCNNC(=O)c1ccc(CNC(=O)c2cc3cc(Br)ccc3[nH]2)cc1 [Compound 13],8.88
11,CCCNNC(=O)c1ccc(CNC(=O)c2cc3ccccc3[nH]2)cc1 [Compound 4],9.36
12,CCCNNC(=O)c1ccc(CNC(=O)c2cc3ccccc3cn2)cc1 [Compound 15],8.83
13,CCCNNC(=O)c1ccc(CNC(=O)c2cc3cnccc3cn2)cc1 [Compound 19],8.69
14,CCCNNC(=O)c1ccc(CNC(=O)c2ccc3cnccc3c2)cc1 [Compound 11],8.99
15,CCCNNC(=O)c1ccc(CNC(=O)c2cc3cc(O)ccc3o2)cc1 [Compound 40],9.29
16,CCCNNC(=O)c1ccc(CNC(=O)c2cc3cc(OC)ccc3[nH]2)cc1 [Compound 41],9.24
17,CCCNNC(=O)c1ccc(CNC(=O)c2cnc3ccccc3c2)cc1 [Compound 18],8.75
18,CCCNNC(=O)c1ccc(CNC(=O)c2cc3cc(Br)ccc3o2)cc1 [Compound 42],9.21
19,CCCNNC(=O)c1ccc(CNC(=O)c2ccc3ccncc3c2)cc1 [Compound 16],8.81
20,CCCNNC(=O)c1ccc(CNC(=O)c2nc3ccccc3[nH]2)cc1 [Compound 14],8.84

# Same assay, conditions: recombinant human HDAC3, Boc-Lys(acetyl)-AMC; supplement prints Ref. [48]
row,Compound,pIC50 HDAC3 (HDAC3 experimental pIC50)
1,CCCNNC(=O)c1cccc(CN(CCc2c(C)[nH]c3ccccc23)C(=O)OC(C)(C)C)c1 [Compound 57],5.30
2,COC(=O)CCNNC(=O)/C=C/c1ccc(CNCCc2c(C)[nH]c3ccccc23)cc1 [Compound 34],6.51
3,CCCNNC(=O)/C=C/c1ccc(CN(CCc2c(C)[nH]c3ccccc23)C(=O)OC(C)(C)C)cc1 [Compound 44],7.78
4,CCCNNC(=O)c1ccc(CNCCc2c(C)[nH]c3ccccc23)cc1 [Compound 26],7.70
5,CCCNNC(=O)c1cccc(CNCCc2c(C)[nH]c3ccccc23)c1 [Compound 36],6.17
6,CCCNNC(=O)/C=C/c1ccc(CNCCc2c(C)[nH]c3ccccc23)cc1 [Compound 2],9.55
7,CCCNNC(=O)c1ccc(CNCc2ccccc2)cc1 [Compound 30],7.01
8,Cc1[nH]c2ccccc2c1CCNCc1ccc(/C=C/C(=O)NNCCC#N)cc1 [Compound 45],7.46
9,CCCNNC(=O)c1ccc(OCc2ccccc2)cc1 [Compound 27],7.61
10,CCCNNC(=O)c1ccc(CN(Cc2ccccc2)C(=O)OC(C)(C)C)cc1 [Compound 49],7.11
11,CCCNNC(=O)c1ccc(NC(=O)c2ccccc2)cc1 [Compound 46],7.31
12,CCCNNC(=O)c1ccc(CN(CCc2c(C)[nH]c3ccccc23)C(=O)OC(C)(C)C)cc1 [Compound 43],7.90
13,CCCNNC(=O)c1ccc(NCc2ccccc2)cc1 [Compound 22],8.21
14,Cc1[nH]c2ccccc2c1CCNCc1ccc(/C=C/C(=O)NNCCN)cc1 [Compound 59],5.28

# Same assay, conditions: recombinant human HDAC3, Boc-Lys(acetyl)-AMC; supplement prints Ref. [50]
row,Compound,pIC50 HDAC3 (HDAC3 experimental pIC50)
1,O=C(NCc1ccc(C(=O)NNCC2CCC2)cc1)c1ccccc1 [Compound 50],7.07
2,CCCCNNC(=O)c1cccc2ccccc12 [Compound 60],< 5.00
3,CCNNC(=O)c1ccc(CNC(=O)/C=C/c2ccccc2)cc1 [Compound 25],7.71
4,CCCCNNC(=O)c1ccc(CNC(=O)c2ccccc2)cc1 [Compound 23],8.07
5,CCCCNNC(=O)/C=C/c1ccccc1 [Compound 33],6.53
6,CCCNNC(=O)c1ccc(CNC(=O)/C=C/c2ccccc2)cc1 [Compound 10],9.02
7,CCCCNNC(=O)c1ccc(-c2ccccc2)cc1 [Compound 47],7.17
8,O=C(NCc1ccc(C(=O)NNCC2CC2)cc1)c1ccccc1 [Compound 29],7.40
9,CC(C)NNC(=O)c1ccc(CNC(=O)c2ccccc2)cc1 [Compound 61],< 5.00
10,CCCCCNNC(=O)c1ccc(CNC(=O)/C=C/c2ccccc2)cc1 [Compound 28],7.49
11,CCCCNNC(=O)c1ccc(Oc2ccccc2)cc1 [Compound 52],6.51
12,CCCCNNC(=O)c1ccc2ccccc2c1 [Compound 37],6.05
13,CCCCNNC(=O)c1cc2ccccc2o1 [Compound 54],5.87
14,CCNNC(=O)c1ccc(CNC(=O)c2ccccc2)cc1 [Compound 51],6.73
15,CC/C=N/NC(=O)c1ccc(CNC(=O)c2ccccc2)cc1 [Compound 62],< 5.00
16,CCCCNNC(=O)CCc1ccccc1 [Compound 56],5.72
17,CCCCNNC(=O)c1ccco1 [Compound 58],5.30
18,C/C=C/CNNC(=O)c1ccc(CNC(=O)c2ccccc2)cc1 [Compound 55],5.81
19,CCCCNNC(=O)c1cccs1 [Compound 38],6.04
20,CCCCNNC(=O)c1cccnc1 [Compound 39],5.81
21,CCCCCCCCCCNNC(=O)c1ccc(CNC(=O)c2ccccc2)cc1 [Compound 63],< 5.00
22,O=C(NCc1ccc(C(=O)NNCCC(F)(F)F)cc1)c1ccccc1 [Compound 48],7.16
23,CCCCCCCNNC(=O)c1ccc(CNC(=O)c2ccccc2)cc1 [Compound 35],6.25
24,CCCNNC(=O)c1ccc(CNC(=O)c2ccccc2)cc1 [Compound 20],8.46
25,CCCCCCNNC(=O)c1ccc(CNC(=O)c2ccccc2)cc1 [Compound 32],6.73
26,CCCCCNNC(=O)c1ccc(CNC(=O)c2ccccc2)cc1 [Compound 24],7.73
27,CCCCNNC(=O)c1ccc(CNC(=O)/C=C/c2ccccc2)cc1 [Compound 21],8.44
28,CCCCNNC(=O)c1ccc(OC)cc1 [Compound 31],6.80
29,CCCCCCCCNNC(=O)c1ccc(CNC(=O)c2ccccc2)cc1 [Compound 53],5.96
